# From ChEMBL document CHEMBL1141367, “Substituted 2-[(4-aminomethyl)phenoxy]-2-methylpropionic acid PPARalpha agonists. 1. Discovery of a novel series of potent HDLc raising agents” (J Med Chem, 2007)
# Key:
# [1] = biological target: T1, Peroxisome proliferator-activated receptor alpha (Homo sapiens, UniProt Q07869)
# T1 sequence (Q07869 whole entry): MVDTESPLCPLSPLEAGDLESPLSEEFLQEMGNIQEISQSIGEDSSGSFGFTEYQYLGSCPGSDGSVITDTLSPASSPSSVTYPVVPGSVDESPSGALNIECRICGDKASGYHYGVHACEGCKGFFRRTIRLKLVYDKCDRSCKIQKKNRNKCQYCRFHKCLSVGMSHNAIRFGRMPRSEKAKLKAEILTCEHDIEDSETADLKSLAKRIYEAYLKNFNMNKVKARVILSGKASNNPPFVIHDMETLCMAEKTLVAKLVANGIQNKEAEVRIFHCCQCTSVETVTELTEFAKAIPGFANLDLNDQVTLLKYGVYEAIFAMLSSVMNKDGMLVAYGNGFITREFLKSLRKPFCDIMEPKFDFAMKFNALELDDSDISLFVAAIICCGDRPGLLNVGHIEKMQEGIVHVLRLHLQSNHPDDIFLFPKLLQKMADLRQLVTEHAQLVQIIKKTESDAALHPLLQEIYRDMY
# Description: Agonist potency at PPARalpha in CV1 cells by cell based transient transfection assay
# [2] = biological target: T2, Peroxisome proliferator-activated receptor gamma (Homo sapiens, UniProt P37231); type: functional, cell-based, CV-1
# T2 sequence (P37231 whole entry): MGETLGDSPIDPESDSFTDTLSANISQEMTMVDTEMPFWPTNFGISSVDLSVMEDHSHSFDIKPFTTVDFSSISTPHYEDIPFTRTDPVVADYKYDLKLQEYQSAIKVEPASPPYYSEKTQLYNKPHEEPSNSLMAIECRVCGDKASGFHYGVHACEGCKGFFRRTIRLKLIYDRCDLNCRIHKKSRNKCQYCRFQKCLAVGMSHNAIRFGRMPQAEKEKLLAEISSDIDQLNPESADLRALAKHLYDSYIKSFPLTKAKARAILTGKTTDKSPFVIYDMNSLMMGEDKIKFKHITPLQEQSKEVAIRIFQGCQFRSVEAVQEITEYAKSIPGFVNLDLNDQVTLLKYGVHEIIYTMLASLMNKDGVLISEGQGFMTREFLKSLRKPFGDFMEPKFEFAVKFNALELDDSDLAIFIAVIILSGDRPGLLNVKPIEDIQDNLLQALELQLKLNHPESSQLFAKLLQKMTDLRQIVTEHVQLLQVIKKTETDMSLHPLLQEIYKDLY
# Description: Agonist potency at PPARgamma in CV1 cells by cell based transient transfection assay
# [3] = biological target: T3, Peroxisome proliferator-activated receptor delta (Homo sapiens, UniProt Q03181)
# T3 sequence (Q03181 whole entry): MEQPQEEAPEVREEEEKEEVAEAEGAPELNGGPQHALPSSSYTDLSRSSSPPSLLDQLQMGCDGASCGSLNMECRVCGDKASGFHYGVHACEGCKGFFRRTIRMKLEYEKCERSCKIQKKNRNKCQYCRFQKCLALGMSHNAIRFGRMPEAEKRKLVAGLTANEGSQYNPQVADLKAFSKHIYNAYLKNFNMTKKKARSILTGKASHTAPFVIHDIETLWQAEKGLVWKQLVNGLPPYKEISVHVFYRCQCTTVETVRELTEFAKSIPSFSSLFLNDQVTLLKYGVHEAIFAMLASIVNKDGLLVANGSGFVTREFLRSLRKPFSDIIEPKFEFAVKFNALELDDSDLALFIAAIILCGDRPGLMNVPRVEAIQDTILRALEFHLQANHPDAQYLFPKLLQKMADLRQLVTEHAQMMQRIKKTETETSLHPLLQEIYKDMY
# Description: Agonist potency at PPARdelta in CV1 cells by cell based transient transfection assay
# [4] = biological target: T4, Peroxisome proliferator-activated receptor alpha (Homo sapiens) (UniProt Q07869); test: Agonist potency at PPARalpha expressed in CV1 cells relative to GW-590735; type: functional, cell-based; details: CV-1
# T4 sequence (whole entry): T1 sequence (Q07869 whole entry)
# [5] = test system: Mus musculus; test: Increase in HDL cholesterol level in human Apo-A-I transgenic C57BL/6 mouse at 50 mg/kg; type: functional
# [6] = test system: Mus musculus; test: Decrease in plasma VLDL level in human Apo-A-I transgenic C57BL/6 mouse at 50 mg/kg; type: functional; set-up: scale not given: the % may be the effect or the level left
# [7] = test system: Mus musculus; test: Decrease in LDL cholesterol level in human Apo-A-I transgenic C57BL/6 mouse at 50 mg/kg; type: functional; set-up: scale not given: the % may be the effect or the level left
# [8] = test system: Mus musculus; test: Decrease in plasma TG level in human Apo-A-I transgenic C57BL/6 mouse at 50 mg/kg; type: functional; set-up: scale not given: the % may be the effect or the level left
Structure (SMILES),EC50 [1] [nM],EC50 [2] [nM],EC50 [3] [nM],Activity [4] [%],Activity [5] [%],Activity [6] [%],Activity [7] [%],Activity [8] [%]
Cc1nc(-c2ccc(O)cc2)sc1C(=O)NCc1ccc(OC(C)(C)C(=O)O)cc1,> 10000,> 10000,> 10000,,,,,
Cc1nc(-c2ccc(C(F)(F)F)cc2)sc1CNC(=O)c1ccc(OC(C)(C)C(=O)O)cc1,1320,> 10000,6260,109,,,,
CC(C)OC(=O)C(C)(C)Oc1ccc(C(=O)c2ccc(Cl)cc2)cc1 [FENOFIBRATE],,,,,26,64,78,43
Cc1nc(-c2ccc(C(C)(C)C)cc2)sc1C(=O)NCc1ccc(OC(C)(C)C(=O)O)cc1,,860,> 10000,66,,,,
CC(C)(Oc1ccc(CNC(=O)c2sc(-c3ccc(C(F)(F)F)cc3)nc2C(F)(F)F)cc1)C(=O)O,4,730,8240,98,,,,
Cc1nc(-c2ccc(C(F)(F)F)cc2)sc1C(=O)N(C)Cc1ccc(OC(C)(C)C(=O)O)cc1,240,> 10000,> 10000,84,,,,
Cc1nc(-c2ccc([N+](=O)[O-])cc2)sc1C(=O)NCc1ccc(OC(C)(C)C(=O)O)cc1,30,> 10000,> 10000,111,,,,
Cc1nc(-c2cccc(C(F)(F)F)c2)sc1C(=O)NCc1ccc(OC(C)(C)C(=O)O)cc1,4,> 25000,> 25000,106,,,,
Cc1nc(-c2ccc(C(F)(F)F)cc2)sc1CNCc1ccc(OC(C)(C)C(=O)O)cc1,70,> 10000,4050,110,,,,
Cc1nc(-c2ccccc2C(F)(F)F)sc1C(=O)NCc1ccc(OC(C)(C)C(=O)O)cc1,465,> 25000,808,82,,,,
Cc1nc(-c2ccc(C(F)(F)F)cc2)sc1C(=O)Nc1ccc(OC(C)(C)C(=O)O)cc1,9500,> 10000,> 10000,69,,,,
Cc1nc(-c2ccc(OS(C)(=O)=O)cc2)sc1C(=O)NCc1ccc(OC(C)(C)C(=O)O)cc1,> 10000,> 10000,> 10000,,,,,
Cc1nc(-c2ccc(Cl)cc2)sc1C(=O)NCc1ccc(OC(C)(C)C(=O)O)cc1,10,> 10000,,94,,,,
Cc1nc(-c2ccc(C(F)(F)F)cc2)sc1CCc1ccc(OC(C)(C)C(=O)O)cc1,210,1870,20,138,,,,
Cc1nc(C(=O)NCc2ccc(OC(C)(C)C(=O)O)cc2)c(C)s1,1890,> 10000,660,171,,,,
COc1ccc(-c2nc(C)c(C(=O)NCc3ccc(OC(C)(C)C(=O)O)cc3)s2)cc1,10,> 10000,> 10000,103,,,,
Cc1cc(CCc2sc(-c3ccc(C(F)(F)F)cc3)nc2C)ccc1OCC(=O)O,2000,10000,4,85,,,,
Cc1nc(-c2ccc(OC(F)(F)F)cc2)sc1C(=O)NCc1ccc(OC(C)(C)C(=O)O)cc1,,> 10000,,116,,,,
Cc1nc(-c2ccc(N)cc2)sc1C(=O)NCc1ccc(OC(C)(C)C(=O)O)cc1,5640,> 10000,> 10000,67,,,,
Cc1nc(-c2ccc(C(F)(F)F)cc2)sc1C(=O)NCCc1ccc(OC(C)(C)C(=O)O)cc1,110,> 10000,> 10000,129,,,,
Cc1nc(-c2ccc(F)cc2)sc1C(=O)NCc1ccc(OC(C)(C)C(=O)O)cc1,40,> 10000,> 10000,118,,,,
Cc1cc(SCc2sc(-c3ccc(C(F)(F)F)cc3)nc2C)ccc1OCC(=O)O,,,,108,,,,
